Experimental findings from article PMC2649750 (The Journal of pharmacology and experimental therapeutics, 2008) are described below.

The assay deals with tubulin. In words: inhibition of [3H]vinblastine binding. Further details: species or system Bos taurus.

Compound `C/C=C/C(O)C(C)(C)[C@@H]1C\C=C/C=C\C=C/[C@H](OC)Cc2nc(co2)C(=O)O[C@H](C(C)(C)C(O)/C=C/C)C/C=C\C=C/C=C[C@H](OC)Cc2nc(co2)C(=O)O1` (stereo partly shown) [disorazole C1] showed an inhibition constant (Ki) of 4.5 ± 0.6 µM.

For orientation: Ki means the equilibrium dissociation constant of an inhibitor or competing ligand from its target.
